Measurements published in patent US9938525B2, “Compositions and methods for selective delivery of oligonucleotide molecules to cell types” (nLife Therapeutics, S.L., priority 2012, dated 2018).
pIC50: −log10 of the molar value.

Legend:
5HT3 = molecular target: T1, 5HT3 (Homo sapiens, UniProt P46098); experiment: Binding to 5HT3: displacement of 3H-GR65630 in HEK-5HT3; conditions: displacement of 3H-GR65630 (0.5 nM), HEK-5HT3, 3 ug of protein per well
T1 construct: expressed in transfected cells; host or cells: HEK (HEK-5HT3)
T1 sequence (P46098 24-478): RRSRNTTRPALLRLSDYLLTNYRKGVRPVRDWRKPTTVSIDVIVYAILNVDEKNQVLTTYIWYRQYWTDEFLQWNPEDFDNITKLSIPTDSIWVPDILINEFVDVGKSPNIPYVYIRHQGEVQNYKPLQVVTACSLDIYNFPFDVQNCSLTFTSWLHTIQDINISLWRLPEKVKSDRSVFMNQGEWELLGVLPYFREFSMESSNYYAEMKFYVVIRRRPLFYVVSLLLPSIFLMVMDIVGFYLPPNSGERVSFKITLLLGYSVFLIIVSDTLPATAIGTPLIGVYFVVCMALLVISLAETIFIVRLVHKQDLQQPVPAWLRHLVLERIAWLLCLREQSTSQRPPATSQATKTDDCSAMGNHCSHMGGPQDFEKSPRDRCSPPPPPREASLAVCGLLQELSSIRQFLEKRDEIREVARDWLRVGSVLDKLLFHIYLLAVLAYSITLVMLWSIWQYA
Procedure: FIG. 6. Binding of 1319 to 5HT3. Displacement of 3H-GR65630 (0.5 nM). Data are presented as mean±SD, n=4 from one experiment. Kd of GR65630 was determined from a saturation assay.
Displacement of 3H-GR65630 (0.5 nM) with increasing concentrations of 1319 (from 0.1 nM to 10 uM), Lerisetron-C6-acyl and not derivatized Lerisetron (from 0.1 nM to 30 uM), in HEK-5HT3: 3 ug of protein per well is shown in Table 11.

human 5HT1A receptor = molecular target: T2, human 5HT1A receptor (Homo sapiens, UniProt P08908); experiment: Binding to 5HT1A: displacement of 3H-8-OH-DPAT in CHO cells overexpressing human 5HT1A receptor
T2 construct: expressed in transfected cells; host or cells: CHO
T2 sequence (P08908 1-422): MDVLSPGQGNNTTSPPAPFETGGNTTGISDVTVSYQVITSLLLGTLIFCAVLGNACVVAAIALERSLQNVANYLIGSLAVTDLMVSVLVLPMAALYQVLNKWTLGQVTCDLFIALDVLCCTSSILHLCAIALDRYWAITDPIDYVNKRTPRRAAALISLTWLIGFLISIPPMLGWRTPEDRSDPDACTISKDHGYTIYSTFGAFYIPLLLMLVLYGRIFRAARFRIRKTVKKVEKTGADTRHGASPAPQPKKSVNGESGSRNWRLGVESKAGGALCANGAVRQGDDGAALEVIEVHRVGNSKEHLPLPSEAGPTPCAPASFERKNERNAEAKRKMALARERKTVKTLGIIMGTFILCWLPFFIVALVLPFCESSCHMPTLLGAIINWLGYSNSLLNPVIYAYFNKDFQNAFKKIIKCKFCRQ
Procedure: 10 ug of protein per well preincubated 15 min and incubated 60 min RT.

Ataxin-I mRNA = experiment: Knockdown of Ataxin I in Purkinje cells of the cerebellum (in situ hybridization, optical density); assay type: in vivo, mouse; conditions: C57/B16 mice, intranasal 4 mg/kg/day for four consecutive days, 24 hours after last administration; ± s.e.m.
Description: FIG. 5. Microphotographs of sagittal cerebellum sections labeled with a probe for Ataxin-1. A) and B) Arrows indicate the Purkinje cells layer, ML: molecular layer, GL: granular layer. A: example of animal treated with PBS, B: example of animal treated with 5-nonyloxytryptamine oxalate conjugated to a siRNA against mRNA for Ataxin-I (NP-1297). C: Quantification of optical density (ImageJ) in the Purkinje cells layer in arbitrary units (O.D. (a.u.)) normalized against PBS showing a significant decrease (48%±5 s.e.m.) in animals treated with NP-1297 (t test, *p<0.02).
5-HT1B receptors are expressed in the Purkinje cells of the cerebellum and using the agonist 5-nonyloxytryptamine oxalate for these receptors, conjugated to a siRNA against mRNA for Ataxin-I, we knockdown this protein only in Purkinje cells. Ataxin-1-siRNA sequence (Lee et al., Nat Neurosci 11, 1137-1139 (2008))
For this, five C57/B16 wild type mice were intranasally administered with the conjugated molecule at a concentration of 4 mg/kg/day for four consecutive days and five animals of the same strain were treated with PBS as a control; 24 hours after last administration animals were sacrificed and the brain was processed for in situ hybridization with colorimetric detection. A probe 45 nucleotides long complementary to mouse Ataxin-I mRNA and labeled with digoxigenin at both ends (5′ and 3′) was used. […]

## c1ccc(Cn2c(N3CCNCC3)nc3ccccc32)cc1 [Lerisetron, 1-benzyl-2-piperazin-1-yl-1H-benzimidazole]
5HT3
  IC50: 7 nM

## Nc1ccc(CCN2CCN(c3cccc(C(F)(F)F)c3)CC2)cc1 [LY-165,163, 1-[2-(4-aminophenyl)ethyl]-4-(3-trifluoromethylphenyl)-piperazine]
Human 5HT1A receptor
  pIC50: 8.96

## NP-1297: 5-nonyloxytryptamine oxalate conjugated to a siRNA against mRNA for Ataxin-I (SEQ ID NO: 9/10) (chain 1 GAUCUAACGUGGGCAAGUATT; chain 2 UACUUGCCCACGUUAGAUCTT; 5-nonyloxytryptamine conjugated, attachment position not given here)
Ataxin-I mRNA
  Decrease of optical density (Ataxin-1 probe) in the Purkinje cells layer normalized against PBS: 48%±5
